Experimental data reported in patent US6903052B2, “Nematicidal compositions and methods” (Divergence, Inc., priority 2002, dated 2005).

Columns and labels:
tomato seedlings = assay: Phytotoxicity evaluation on tomato seedlings; type: in vivo; details: 250 μl of 1% emulsion applied to stem-media interface of two-week seedlings
Procedure: Sterilized tomato seeds were germinated in magenta jars containing Gamborg's agar media. After two weeks of growth, seedlings were treated with 250 μl of 1% fatty acid methyl ester emulsion (nonanoic acid, ricinoleic acid, ricinelaidic acid, oleic acid, or a control emulsion lacking any fatty acid), applied directly to the stem-media interface. Tomato seedlings were scored at various times after application of emulsions.

C. elegans = assay: Nematicidal activity of single fatty acid methyl ester emulsions against Caenorhabditis elegans (Example 4); type: cell-based
Procedure: Mixed stage Caenorhabditis elegans were washed off plates seeded with OP50 bacteria using M9 solution. 250 μl of the M9 solution, which contained about 50 worms, was pipetted into each well of a 24-well plate.
Fatty acid methyl ester emulsions were prepared following the teachings of Kim et al (U.S. Pat. No. 5,698,592). Briefly, 1 ml 1% stock solution emulsions were prepared by mixing 10 μl of fatty acid methyl ester with 20 μl of the surfactant Igepal CO 630 in a 1.5 ml eppendorf tube. After careful mixing of fatty acid and Igepal CO 630, 850 μl of ddH20 was added and mixed by gentle pipetting until a homogeneous solution was obtained. Finally, 120 μl of pure isopropanol was added and mixed by gentle pipetting. This stock solution was then used to produce various fatty acid methyl ester dilution emulsions in 24-well plate assays.
To each well, fatty acid emulsions or control emulsions were added and rapidly mixed by swirling. Nematode viability was scored by visual observation and motility assays at various time points 24 hours following addition of emulsions or controls. The fatty acid emulsions tested were methyl esters of nonanoic (pelargonic) acid, ricinoleic acid, vernolic acid, linoleic acid, oleic acid, and control emulsions lacking fatty acids.

P. trichosuri = assay: Nematicidal activity of fatty acid methyl ester emulsions, spectrum (Example 8); type: cell-based, Parastrongyloides trichosuri; details: P. trichosuri infective 3rd stage larva
Procedure: Briefly, the indicated fatty acid emulsions were added and rapidly mixed by swirling. Nematode viability was scored by visual observation and motility assays 24 hours following addition of emulsions (48 hours for plant parasitic nematodes Meloidogyne and Heterodera species). The fatty acid emulsions tested were methyl esters of nonanoic (pelargonic) acid, ricinelaidic acid, ricinoleic acid, vernolic acid, linoleic acid, and oleic acid. […] Results shown are mean % values obtained from multiple independent experiments
The Caenorhabiditis elegans were mixed stage populations. Similar effects seen on several other free-living nematode species. The Parastrongyloides trichosuri (parasite of Australian bushtail possum) were dauer-like infective 3rd stage larva. Similar effects are also seen against free-living stages. The Meloidogyne incognita and Meloidogyne javanica (root knot nematode) were 2nd stage juveniles (dauer-like infective stage). The Heterodera glycines (soybean cyst nematode) were 2nd stage juveniles (dauer-like infective stage). Finally, the Pratylenchus scribneri (corn lesion nematode) were mixed stage populations.

CCCCCCC(O)C/C=C\CCCCCCCC(=O)OC (stereo not drawn) [Ricinoleic Acid (C18-methyl ester), 12-hydroxy-cis-9-octadecenoic acid methyl ester]
Visible effects on tomato seedlings (tomato seedlings): none of the tomatoes treated with the other fatty acid methyl ester emulsions showed visible effects | Percentage of Worm Death (C. elegans; 0.003% emulsion, 1 hr): 60% | Percentage of Worm Death (C. elegans; 0.003% emulsion, 6 hr): 60% | Percentage of Worm Death (C. elegans; 0.003% emulsion, 24 hr): 60% | Percentage of Worm Death (C. elegans; 0.1% emulsion, 1 hr): 90% | Percentage of Worm Death (C. elegans; 0.1% emulsion, 6 hr): 90% | Percentage of Worm Death (C. elegans; 0.1% emulsion, 24 hr): 90% | Nematicidal activity (in words) (C. elegans; concentration of 0.1%): strongly nematicidal | Time before strong killing effects are apparent (C. elegans; emulsion, C. elegans): up to 30 minutes | % Worm Death (24 hr) (P. trichosuri; 0.01% solution): ˜60% | % Worm Death (24 hr) (P. trichosuri; 0.1% solution): ˜50%
